Test results reported in ChEMBL document CHEMBL3612057, “Discovery of indolizines containing triazine moiety as new leads for the development of antitumoral agents targeting mitotic events” (2015).
Activity calls are given as the source filed them. No cut-off for these calls is given here.

Columns and labels:
OVCAR-4 = experiment: Cytotoxicity against human OVCAR4 cells assessed as growth inhibition at 10 uM after 24 hrs by SRB assay; assay type: functional; conditions: OVCAR-4, 24 h, read-out: GI
NCI-H522 = experiment: Cytotoxicity against human NCI-H522 cells assessed as growth inhibition at 10 uM after 24 hrs by SRB assay; assay type: functional; conditions: NCI-H522, 24 h, read-out: GI
RXF 393 [1] = experiment: Cytotoxicity against human RXF393 cells after 48 hrs by SRB assay; assay type: functional; conditions: RXF 393, 48 h
[2] = Cytotoxicity against human Hs578T cells assessed as growth inhibition at 10 uM after 24 hrs by SRB assay; assay type: functional; conditions: Hs-578T, read-out: GI
SK-MEL-28 [3] = experiment: Cytotoxicity against human SK-MEL-28 cells assessed as growth inhibition at 10 uM after 24 hrs by SRB assay; assay type: functional; conditions: SK-MEL-28, 24 h, read-out: GI
Ovis aries = species on record: Ovis aries; experiment: Inhibition of sheep tubulin polymerization at 100 uM by fluorescence assay
SF-295 = experiment: Cytotoxicity against human SF295 cells assessed as growth inhibition at 10 uM after 24 hrs by SRB assay; assay type: functional; conditions: SF-295, 24 h, read-out: GI
RXF 393 [4] = experiment: Cytotoxicity against human RXF393 cells assessed as growth inhibition at 10 uM after 24 hrs by SRB assay; assay type: functional; conditions: RXF 393, 24 h, read-out: GI
HOP-92 [5] = experiment: Cytotoxicity against human HOP92 cells assessed as growth inhibition at 10 uM after 24 hrs by SRB assay; assay type: functional; conditions: HOP-92, 24 h, read-out: GI
NCI/ADR-RES = experiment: Cytotoxicity against human NCI/ADR-RES cells assessed as growth inhibition at 10 uM after 24 hrs by SRB assay; assay type: functional; conditions: read-out: GI
OVCAR-8 = experiment: Cytotoxicity against human OVCAR8 cells assessed as growth inhibition at 10 uM after 24 hrs by SRB assay; assay type: functional; conditions: OVCAR-8, 24 h, read-out: GI
CAKI-1 = experiment: Cytotoxicity against human CAKI-1 cells assessed as growth inhibition at 10 uM after 24 hrs by SRB assay; assay type: functional; conditions: CAKI-1, 24 h, read-out: GI
MDA-MB-231 [6] = experiment: Cytotoxicity against human MDA-MB-231 cells assessed as growth inhibition at 10 uM after 24 hrs by SRB assay; assay type: functional; conditions: MDA-MB-231, 24 h, read-out: GI
U-251 [7] = experiment: Cytotoxicity against human U251 cells assessed as growth inhibition at 10 uM after 24 hrs by SRB assay; assay type: functional; conditions: U-251, 24 h, read-out: GI
HOP-62 [8] = experiment: Cytotoxicity against human HOP62 cells assessed as growth inhibition at 10 uM after 24 hrs by SRB assay; assay type: functional; conditions: HOP-62, 24 h, read-out: GI
MCF7 = experiment: Cytotoxicity against human MCF7 cells assessed as growth inhibition at 10 uM after 24 hrs by SRB assay; assay type: functional; conditions: MCF7, 24 h, read-out: GI
786-0 [9] = experiment: Cytotoxicity against human 786-0 cells after 48 hrs by SRB assay; assay type: functional; conditions: 786-0, 48 h
SNB-75 [10] = experiment: Cytotoxicity against human SNB75 cells after 48 hrs by SRB assay; assay type: functional; conditions: SNB-75, 48 h
T47D = experiment: Cytotoxicity against human T47D cells assessed as growth inhibition at 10 uM after 24 hrs by SRB assay; assay type: functional; conditions: read-out: GI
OVCAR-3 = experiment: Cytotoxicity against human OVCAR3 cells assessed as growth inhibition at 10 uM after 24 hrs by SRB assay; assay type: functional; conditions: OVCAR-3, 24 h, read-out: GI
NCI-H226 = experiment: Cytotoxicity against human NCI-H226 cells assessed as growth inhibition at 10 uM after 24 hrs by SRB assay; assay type: functional; conditions: NCI-H226, 24 h, read-out: GI
K562 = experiment: Cytotoxicity against human K562 cells assessed as growth inhibition at 10 uM after 24 hrs by SRB assay; assay type: functional; conditions: K562, 24 h, read-out: GI
Malme-3M = experiment: Cytotoxicity against human MALME-3M cells assessed as growth inhibition at 10 uM after 24 hrs by SRB assay; assay type: functional; conditions: read-out: GI
HCT-116 = experiment: Cytotoxicity against human HCT116 cells assessed as growth inhibition at 10 uM after 24 hrs by SRB assay; assay type: functional; conditions: HCT-116, 24 h, read-out: GI
SK-MEL-5 = experiment: Cytotoxicity against human SK-MEL-5 cells assessed as growth inhibition at 10 uM after 24 hrs by SRB assay; assay type: functional; conditions: SK-MEL-5, 24 h, read-out: GI
TK-10 [11] = experiment: Cytotoxicity against human TK10 cells assessed as growth inhibition at 10 uM after 24 hrs by SRB assay; assay type: functional; conditions: TK-10, 24 h, read-out: GI
UACC-62 = experiment: Cytotoxicity against human UACC62 cells assessed as growth inhibition at 10 uM after 24 hrs by SRB assay; assay type: functional; conditions: UACC-62, 24 h, read-out: GI
U-251 [12] = experiment: Cytotoxicity against human U251 cells after 48 hrs by SRB assay; assay type: functional; conditions: U-251, 48 h
SF-539 = experiment: Cytotoxicity against human SF539 cells assessed as growth inhibition at 10 uM after 24 hrs by SRB assay; assay type: functional; conditions: SF-539, 24 h, read-out: GI
SK-MEL-28 [13] = experiment: Cytotoxicity against human SK-MEL-28 cells after 48 hrs by SRB assay; assay type: functional; conditions: SK-MEL-28, 48 h
A549 = experiment: Cytotoxicity against human A549 cells assessed as growth inhibition at 10 uM after 24 hrs by SRB assay; assay type: functional; conditions: A549, 24 h, read-out: GI
MDA-MB-231 [14] = experiment: Cytotoxicity against human MDA-MB-231 cells after 48 hrs by SRB assay; assay type: functional; conditions: MDA-MB-231, 48 h
SR = experiment: Cytotoxicity against human SR cells assessed as growth inhibition at 10 uM after 24 hrs by SRB assay; assay type: functional; conditions: read-out: GI
PC-3 = experiment: Cytotoxicity against human PC3 cells assessed as growth inhibition at 10 uM after 24 hrs by SRB assay; assay type: functional; conditions: PC-3, 24 h, read-out: GI
ACHN = experiment: Cytotoxicity against human ACHN cells assessed as growth inhibition at 10 uM after 24 hrs by SRB assay; assay type: functional; conditions: read-out: GI
786-0 [15] = experiment: Cytotoxicity against human 786-0 cells assessed as growth inhibition at 10 uM after 24 hrs by SRB assay; assay type: functional; conditions: 786-0, 24 h, read-out: GI
SK-OV-3 = experiment: Cytotoxicity against human SKOV3 cells assessed as growth inhibition at 10 uM after 24 hrs by SRB assay; assay type: functional; conditions: SK-OV-3, 24 h, read-out: GI
UACC-257 = experiment: Cytotoxicity against human UACC257 cells assessed as growth inhibition at 10 uM after 24 hrs by SRB assay; assay type: functional; conditions: UACC-257, 24 h, read-out: GI
HL-60(TB) = experiment: Cytotoxicity against human HL-60(TB) cells assessed as growth inhibition at 10 uM after 24 hrs by SRB assay; assay type: functional; conditions: HL-60, 24 h, read-out: GI
TK-10 [16] = experiment: Cytotoxicity against human TK10 cells after 48 hrs by SRB assay; assay type: functional; conditions: TK-10, 48 h
HOP-92 [17] = experiment: Cytotoxicity against human HOP92 cells after 48 hrs by SRB assay; assay type: functional; conditions: HOP-92, 48 h
RPMI-8226 = experiment: Cytotoxicity against human RPMI8226 cells assessed as growth inhibition at 10 uM after 24 hrs by SRB assay; assay type: functional; conditions: RPMI-8226, 24 h, read-out: GI
NCI-H460 = experiment: Cytotoxicity against human NCI-H460 cells assessed as growth inhibition at 10 uM after 24 hrs by SRB assay; assay type: functional; conditions: NCI-H460, 24 h, read-out: GI
HOP-62 [18] = experiment: Cytotoxicity against human HOP62 cells after 48 hrs by SRB assay; assay type: functional; conditions: HOP-62, 48 h
SNB-75 [19] = experiment: Cytotoxicity against human SNB75 cells assessed as growth inhibition at 10 uM after 24 hrs by SRB assay; assay type: functional; conditions: SNB-75, 24 h, read-out: GI
MDA-MB-435 = experiment: Cytotoxicity against human MDA-MB-435 cells assessed as growth inhibition at 10 uM after 24 hrs by SRB assay; assay type: functional; conditions: MDA-MB-435, 24 h, read-out: GI
DU-145 = experiment: Cytotoxicity against human DU145 cells after 48 hrs by SRB assay; assay type: functional; conditions: DU-145, 48 h
CCRF-CEM = experiment: Cytotoxicity against human CCRF-CEM cells assessed as growth inhibition at 10 uM after 24 hrs by SRB assay; assay type: functional

## COc1nc(OC)nc(-c2cc(C(=O)c3ccc(Br)cc3)n3ccccc23)n1
OVCAR-4
  inhibition of growth at 10 µM: 88%
NCI-H522
  inhibition of growth at 10 µM: 40%
RXF 393 [1]
  GI50: 4.74 µM
[2]
  inhibition of growth at 10 µM: 96%
SK-MEL-28 [3]
  inhibition of growth at 10 µM: 63%
Ovis aries
  inhibition: inactive
SF-295
  inhibition of growth at 10 µM: 87%
RXF 393 [4]
  inhibition of growth at 10 µM: 75%
HOP-92 [5]
  inhibition of growth at 10 µM: 59%
NCI/ADR-RES
  inhibition of growth at 10 µM: 50%
OVCAR-8
  inhibition of growth at 10 µM: 52%
CAKI-1
  inhibition of growth at 10 µM: 56%
MDA-MB-231 [6]
  inhibition of growth at 10 µM: 48%
U-251 [7]
  inhibition of growth at 10 µM: 61%
HOP-62 [8]
  inhibition of growth at 10 µM: 96%
MCF7
  inhibition of growth at 10 µM: 18%
786-0 [9]
  GI50: 2.6 µM
SNB-75 [10]
  GI50: 0.87 µM
T47D
  inhibition of growth at 10 µM: 52%
OVCAR-3
  inhibition of growth at 10 µM: 44%
NCI-H226
  inhibition of growth at 10 µM: 75%
K562
  inhibition of growth at 10 µM: 22%
Malme-3M
  inhibition of growth at 10 µM: 37%
HCT-116
  inhibition of growth at 10 µM: 65%
SK-MEL-5
  inhibition of growth at 10 µM: 27%
TK-10 [11]
  inhibition of growth at 10 µM: 78%
UACC-62
  inhibition of growth at 10 µM: 30%
U-251 [12]
  GI50: 1.87 µM
SF-539
  inhibition of growth at 10 µM: 76%
SK-MEL-28 [13]
  GI50: 83.8 µM
A549
  inhibition of growth at 10 µM: 62%
MDA-MB-231 [14]
  GI50: 0.92 µM
SR
  inhibition of growth at 10 µM: 36%
PC-3
  inhibition of growth at 10 µM: 55%
ACHN
  inhibition of growth at 10 µM: 70%
786-0 [15]
  inhibition of growth at 10 µM: 59%
SK-OV-3
  inhibition of growth at 10 µM: -11%
UACC-257
  inhibition of growth at 10 µM: 62%
HL-60(TB)
  inhibition of growth at 10 µM: 12%
TK-10 [16]
  GI50: 3.32 µM
HOP-92 [17]
  GI50: 1.08 µM
RPMI-8226
  inhibition of growth at 10 µM: 26%
NCI-H460
  inhibition of growth at 10 µM: 70%
HOP-62 [18]
  GI50: 2.18 µM
SNB-75 [19]
  inhibition of growth at 10 µM: -5%
MDA-MB-435
  inhibition of growth at 10 µM: 45%
DU-145
  GI50: 29.1 µM
CCRF-CEM
  growth inhibition (GI): inactive
